The results in this text go back to ChEMBL document CHEMBL1201862, “PubChem BioAssay data set” (2004).

Activity calls are given as the source filed them.

Assay [1] has as its target Heat shock protein HSP 90-alpha (Homo sapiens, UniProt P07900). Put plainly: Luminescence-based dose response biochemical high throughput screening assay for inhibitors of the Heat Shock Protein 90 (HSP90). [Related pubchem assays: 1831 (Summary AID.), 1846 (Confirmation screen.), 1789 (Primary screen.)].
Assay [2] addresses Fibroblast growth factor receptor 3 (Homo sapiens, UniProt P22607). The format is functional.
The target in assay [3] is Dual specificity protein kinase CLK4 (Homo sapiens, UniProt Q9HAZ1). Format: functional.
The target in assay [4] is Dual specificity tyrosine-phosphorylation-regulated kinase 1B (Homo sapiens, UniProt Q9Y463). In words: Navigating the Kinome. Panel member name: DYRK1B. The format is functional.
The target in the next assay is SRSF protein kinase 1 (Homo sapiens, UniProt Q96SB4). Format: functional.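 Note: measured as one member of a kinome-wide kinase profiling panel.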
The target of assay [5] is Mitogen-activated protein kinase 9 (Homo sapiens, UniProt P45984). Format: functional.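 Note: value from a kinome panel profiling assay, MAPK9 panel entry.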
For assay [6], the target named is Death-associated protein kinase 3 (Homo sapiens, UniProt O43293). The format is functional.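 Note: measured as one member of a kinome-wide profiling panel.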
Assay [7] concerns the target Phosphorylase b kinase gamma catalytic chain, liver/testis isoform (Homo sapiens, UniProt P15735). The format is functional.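 Note: PHKG2 measured as one member of a kinome-wide kinase panel.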
For assay [8], the target named is Testis-specific serine/threonine-protein kinase 2 (Homo sapiens, UniProt Q96PF2). Format: functional.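 Note: part of the Navigating the Kinome panel, target entry STK22B.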
Assay [9] deals with Mitogen-activated protein kinase kinase kinase kinase 2 (Homo sapiens, UniProt Q12851). Format: functional.
In assay [10] the target is Dual specificity mitogen-activated protein kinase kinase 1 (Homo sapiens, UniProt Q02750). In words: Navigating the Kinome. Panel member name: MAP2K1. The format is functional.
In assay [11] the target is Protein kinase C zeta type (Homo sapiens, UniProt Q05513). The format is functional.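 Note: measured as one member of a broad kinase profiling panel.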
Assay [12] deals with High affinity nerve growth factor receptor (Homo sapiens, UniProt P04629). Format: functional.
The target of assay [13] is Calcium/calmodulin-dependent protein kinase type 1 (Homo sapiens, UniProt Q14012). The format is functional.
Assay [14] has as its target Cyclin-dependent kinase 5 (Homo sapiens, UniProt Q00535). The format is functional.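 Note: CDK5 measured as one member of a kinase profiling panel.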
The target of assay [15] is Vascular endothelial growth factor receptor 2 (Homo sapiens, UniProt P35968). The format is functional.
The next assay deals with Activin receptor type-1 (Homo sapiens, UniProt Q04771). Put plainly: Navigating the Kinome. Panel member name: ACVR1. Format: functional.
Assay [16] concerns the target Receptor tyrosine-protein kinase erbB-4 (Homo sapiens, UniProt Q15303). The format is functional.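 Note: ERBB4 member of a kinome-wide kinase profiling panel.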
Assay [17] has as its target Ribosomal protein S6 kinase beta-1 (Homo sapiens, UniProt P23443). Format: functional.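 Note: measured as one member of a kinome-wide profiling panel.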
Assay [18] deals with Testis-specific serine/threonine-protein kinase 1 (Homo sapiens, UniProt Q9BXA7). The format is functional.
Assay [19] deals with Proto-oncogene tyrosine-protein kinase ROS (Homo sapiens, UniProt P08922). The format is functional.
Assay [20] deals with Protein kinase C delta type (Homo sapiens, UniProt Q05655). Format: functional.
Assay [21] concerns the target Leucine-rich repeat serine/threonine-protein kinase 2 (Homo sapiens, UniProt Q5S007). Format: functional.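 Note: value from a broad kinome-wide panel profiling study in which LRRK2 was one of the kinases tested.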
The target of assay [22] is Megakaryocyte-associated tyrosine-protein kinase (Homo sapiens, UniProt P42679). The format is functional.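 Note: affinity measured as one member of a kinase panel (Navigating the Kinome) against MATK.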
For assay [23], the target named is Mitogen-activated protein kinase 12 (Homo sapiens, UniProt P53778). The format is functional.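 Note: measured as one member of a kinome-wide kinase profiling panel.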
Assay [24] addresses Non-receptor tyrosine-protein kinase TYK2 (Homo sapiens, UniProt P29597). The format is functional.
Assay [25] concerns the target Serine/threonine-protein kinase TBK1 (Homo sapiens, UniProt Q9UHD2). Put plainly: Navigating the Kinome. Panel member name: TBK1. Format: functional.
For assay [26], the target named is Serine/threonine-protein kinase MRCK alpha (Homo sapiens, UniProt Q5VT25). Format: functional.
Assay [27] deals with Tyrosine-protein kinase receptor TYRO3 (Homo sapiens, UniProt Q06418). Format: functional.
Assay [28] deals with 3-phosphoinositide-dependent protein kinase 1 (Homo sapiens, UniProt O15530). Format: functional.
In assay [29] the target is G protein-coupled receptor kinase 5 (Homo sapiens, UniProt P34947). Put plainly: Navigating the Kinome. Panel member name: GPRK5. Format: functional.
Assay [30] has as its target Dual specificity tyrosine-phosphorylation-regulated kinase 3 (Homo sapiens, UniProt O43781). Format: functional.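 Note: measured as one member of a broad kinase panel.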
Assay [31] has as its target Serine/threonine-protein kinase Nek2 (Homo sapiens, UniProt P51955). The format is functional.
Assay [32] has as its target Serine/threonine-protein kinase PLK3 (Homo sapiens, UniProt Q9H4B4). The format is functional.
Assay [33] concerns the target Serine/threonine-protein kinase D3 (Homo sapiens, UniProt O94806). The format is functional.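 Note: determined within a kinase panel screen, with PRKCN as the panel member.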
Assay [34] deals with ALK tyrosine kinase receptor (Homo sapiens, UniProt Q9UM73). Format: functional.
Assay [35] concerns the target MAP kinase-activated protein kinase 2 (Homo sapiens, UniProt P49137). The format is functional.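 Note: measured as one member of a kinome-wide kinase panel.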
Assay [36] addresses Interleukin-1 receptor-associated kinase 1 (Homo sapiens, UniProt P51617). Format: functional.
In assay [37] the target is Tyrosine-protein kinase Fer (Homo sapiens, UniProt P16591). Format: functional.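 Note: FER tested as one member of a kinome panel.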
Assay [38] concerns the target Serine/threonine-protein kinase BRSK1 (Homo sapiens, UniProt Q8TDC3). Format: functional.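 Note: measured within a kinome-wide kinase panel, with the target listed as KIAA1811.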
The target of assay [39] is Inhibitor of nuclear factor kappa-B kinase subunit epsilon (Homo sapiens, UniProt Q14164). In words: Navigating the Kinome. Panel member name: IKBKE. The format is functional.
The target in assay [40] is MAP kinase-activated protein kinase 3 (Homo sapiens, UniProt Q16644). The format is functional.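 Note: value comes from a kinome-wide profiling panel in which MAPKAPK3 is one of the panel members.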
For assay [41], the target named is Casein kinase I isoform alpha (Homo sapiens, UniProt P48729). Format: functional.
Assay [42] addresses Dual specificity protein kinase CLK2 (Homo sapiens, UniProt P49760). The format is functional.
The target of assay [43] is Serine/threonine-protein kinase D2 (Homo sapiens, UniProt Q9BZL6). Format: functional.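 Note: measured against PRKD2 as one member of a kinome-wide kinase profiling panel.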
For assay [44], the target named is Protein kinase C iota type (Homo sapiens, UniProt P41743). The format is functional.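 Note: measured within a kinome-wide kinase panel, PRKCI as panel member.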

Chain of Tyrosine-protein kinase receptor TYRO3 (Q06418 whole entry): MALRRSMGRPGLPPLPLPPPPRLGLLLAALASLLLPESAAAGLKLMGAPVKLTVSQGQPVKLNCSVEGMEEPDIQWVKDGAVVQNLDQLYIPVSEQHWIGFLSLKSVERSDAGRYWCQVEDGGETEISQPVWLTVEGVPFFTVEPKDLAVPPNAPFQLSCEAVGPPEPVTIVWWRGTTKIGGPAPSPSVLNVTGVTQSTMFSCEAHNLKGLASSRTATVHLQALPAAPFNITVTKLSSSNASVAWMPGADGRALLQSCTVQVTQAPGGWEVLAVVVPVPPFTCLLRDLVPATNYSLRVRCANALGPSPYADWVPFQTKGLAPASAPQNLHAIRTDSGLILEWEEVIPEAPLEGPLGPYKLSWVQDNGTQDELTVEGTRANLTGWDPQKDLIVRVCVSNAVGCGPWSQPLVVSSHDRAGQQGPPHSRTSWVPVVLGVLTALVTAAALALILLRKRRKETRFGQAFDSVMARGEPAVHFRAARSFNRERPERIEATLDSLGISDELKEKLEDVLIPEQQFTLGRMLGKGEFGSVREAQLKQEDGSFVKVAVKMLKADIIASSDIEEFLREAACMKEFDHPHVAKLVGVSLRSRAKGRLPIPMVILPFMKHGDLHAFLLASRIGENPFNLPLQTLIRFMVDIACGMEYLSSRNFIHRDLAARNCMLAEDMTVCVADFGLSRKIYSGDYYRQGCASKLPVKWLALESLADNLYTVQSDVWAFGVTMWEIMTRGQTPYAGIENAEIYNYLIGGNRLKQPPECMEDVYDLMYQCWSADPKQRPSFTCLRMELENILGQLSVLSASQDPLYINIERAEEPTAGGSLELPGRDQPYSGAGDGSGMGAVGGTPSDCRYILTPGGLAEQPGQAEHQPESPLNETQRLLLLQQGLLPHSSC
Chain of Ribosomal protein S6 kinase beta-1 (P23443 whole entry): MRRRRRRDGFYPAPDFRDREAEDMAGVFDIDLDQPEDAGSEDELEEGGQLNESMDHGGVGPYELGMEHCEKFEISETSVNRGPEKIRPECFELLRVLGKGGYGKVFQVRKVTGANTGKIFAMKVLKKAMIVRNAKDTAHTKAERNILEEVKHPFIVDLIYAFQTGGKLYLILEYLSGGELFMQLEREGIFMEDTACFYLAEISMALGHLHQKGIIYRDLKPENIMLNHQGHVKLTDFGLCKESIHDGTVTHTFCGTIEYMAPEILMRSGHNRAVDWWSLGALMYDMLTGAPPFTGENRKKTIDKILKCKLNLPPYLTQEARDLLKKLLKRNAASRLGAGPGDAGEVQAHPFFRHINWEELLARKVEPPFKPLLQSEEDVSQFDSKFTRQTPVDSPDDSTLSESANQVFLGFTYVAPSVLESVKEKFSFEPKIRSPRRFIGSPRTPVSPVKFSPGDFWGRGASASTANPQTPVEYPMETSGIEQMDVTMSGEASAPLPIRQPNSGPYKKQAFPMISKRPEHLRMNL
Chain of Calcium/calmodulin-dependent protein kinase type 1 (Q14012 whole entry): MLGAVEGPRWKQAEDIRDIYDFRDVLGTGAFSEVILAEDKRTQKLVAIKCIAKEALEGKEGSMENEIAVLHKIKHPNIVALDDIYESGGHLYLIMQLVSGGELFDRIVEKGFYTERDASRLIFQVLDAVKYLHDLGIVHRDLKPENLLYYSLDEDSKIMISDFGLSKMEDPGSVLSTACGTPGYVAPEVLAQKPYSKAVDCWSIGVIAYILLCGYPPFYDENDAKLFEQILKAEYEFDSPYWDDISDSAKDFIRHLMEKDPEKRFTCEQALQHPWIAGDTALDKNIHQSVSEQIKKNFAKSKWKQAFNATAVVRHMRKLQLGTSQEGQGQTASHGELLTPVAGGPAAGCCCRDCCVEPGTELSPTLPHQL
Chain of Dual specificity protein kinase CLK2 (P49760 whole entry): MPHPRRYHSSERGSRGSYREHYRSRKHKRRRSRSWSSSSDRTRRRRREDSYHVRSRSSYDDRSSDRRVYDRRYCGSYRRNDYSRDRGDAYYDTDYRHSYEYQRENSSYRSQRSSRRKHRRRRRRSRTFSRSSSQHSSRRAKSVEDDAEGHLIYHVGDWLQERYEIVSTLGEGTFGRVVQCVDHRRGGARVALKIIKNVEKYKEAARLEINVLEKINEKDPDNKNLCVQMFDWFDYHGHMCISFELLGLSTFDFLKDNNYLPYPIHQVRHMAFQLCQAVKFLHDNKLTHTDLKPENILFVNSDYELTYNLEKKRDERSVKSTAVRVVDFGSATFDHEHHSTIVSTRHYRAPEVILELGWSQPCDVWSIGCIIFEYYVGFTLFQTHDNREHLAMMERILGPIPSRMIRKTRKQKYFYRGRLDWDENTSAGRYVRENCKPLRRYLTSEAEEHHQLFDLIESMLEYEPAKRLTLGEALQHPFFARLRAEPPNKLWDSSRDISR
Chain of Mitogen-activated protein kinase kinase kinase kinase 2 (Q12851 whole entry): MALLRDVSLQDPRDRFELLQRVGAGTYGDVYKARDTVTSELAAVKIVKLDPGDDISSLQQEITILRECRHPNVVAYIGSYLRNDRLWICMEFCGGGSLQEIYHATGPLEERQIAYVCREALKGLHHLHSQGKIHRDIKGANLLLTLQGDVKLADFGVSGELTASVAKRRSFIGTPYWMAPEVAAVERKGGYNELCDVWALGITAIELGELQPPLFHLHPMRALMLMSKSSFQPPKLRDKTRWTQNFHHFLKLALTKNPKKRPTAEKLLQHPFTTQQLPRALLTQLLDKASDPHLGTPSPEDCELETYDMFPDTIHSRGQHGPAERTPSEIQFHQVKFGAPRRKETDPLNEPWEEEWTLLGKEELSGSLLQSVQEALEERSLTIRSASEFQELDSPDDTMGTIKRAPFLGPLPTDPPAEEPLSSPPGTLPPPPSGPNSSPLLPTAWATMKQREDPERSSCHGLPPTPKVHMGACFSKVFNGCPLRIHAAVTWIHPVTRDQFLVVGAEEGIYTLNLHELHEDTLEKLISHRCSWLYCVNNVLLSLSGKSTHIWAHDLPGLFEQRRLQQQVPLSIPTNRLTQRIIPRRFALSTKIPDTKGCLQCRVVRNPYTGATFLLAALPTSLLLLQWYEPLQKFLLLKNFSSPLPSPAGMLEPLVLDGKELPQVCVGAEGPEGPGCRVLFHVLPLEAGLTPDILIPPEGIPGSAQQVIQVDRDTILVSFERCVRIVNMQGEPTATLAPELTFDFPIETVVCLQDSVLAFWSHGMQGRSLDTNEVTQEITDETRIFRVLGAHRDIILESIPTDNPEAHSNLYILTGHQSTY
Chain of Serine/threonine-protein kinase D3 (O94806 whole entry): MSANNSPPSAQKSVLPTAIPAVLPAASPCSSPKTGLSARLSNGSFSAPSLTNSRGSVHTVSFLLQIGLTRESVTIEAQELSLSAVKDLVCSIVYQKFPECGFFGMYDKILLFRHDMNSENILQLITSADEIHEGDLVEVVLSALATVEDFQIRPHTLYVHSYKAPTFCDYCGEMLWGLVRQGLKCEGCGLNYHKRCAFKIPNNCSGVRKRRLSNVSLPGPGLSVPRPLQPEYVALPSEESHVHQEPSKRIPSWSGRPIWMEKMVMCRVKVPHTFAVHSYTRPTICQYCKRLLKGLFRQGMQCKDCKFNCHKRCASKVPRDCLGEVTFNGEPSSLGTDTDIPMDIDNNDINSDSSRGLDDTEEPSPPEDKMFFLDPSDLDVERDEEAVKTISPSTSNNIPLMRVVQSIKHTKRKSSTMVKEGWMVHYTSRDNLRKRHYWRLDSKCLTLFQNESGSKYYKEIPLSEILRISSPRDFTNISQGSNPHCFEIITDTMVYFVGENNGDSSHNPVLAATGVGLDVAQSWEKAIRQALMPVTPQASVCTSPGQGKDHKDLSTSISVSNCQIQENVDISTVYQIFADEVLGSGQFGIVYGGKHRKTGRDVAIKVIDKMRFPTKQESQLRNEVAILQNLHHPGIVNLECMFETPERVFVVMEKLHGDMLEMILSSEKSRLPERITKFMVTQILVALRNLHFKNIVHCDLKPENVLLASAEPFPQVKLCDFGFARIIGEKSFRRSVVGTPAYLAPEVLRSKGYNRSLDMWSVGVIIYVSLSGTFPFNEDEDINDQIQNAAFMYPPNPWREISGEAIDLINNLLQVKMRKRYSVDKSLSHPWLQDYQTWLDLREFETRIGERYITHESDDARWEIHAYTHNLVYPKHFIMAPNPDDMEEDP
Chain of Dual specificity tyrosine-phosphorylation-regulated kinase 3 (O43781 whole entry): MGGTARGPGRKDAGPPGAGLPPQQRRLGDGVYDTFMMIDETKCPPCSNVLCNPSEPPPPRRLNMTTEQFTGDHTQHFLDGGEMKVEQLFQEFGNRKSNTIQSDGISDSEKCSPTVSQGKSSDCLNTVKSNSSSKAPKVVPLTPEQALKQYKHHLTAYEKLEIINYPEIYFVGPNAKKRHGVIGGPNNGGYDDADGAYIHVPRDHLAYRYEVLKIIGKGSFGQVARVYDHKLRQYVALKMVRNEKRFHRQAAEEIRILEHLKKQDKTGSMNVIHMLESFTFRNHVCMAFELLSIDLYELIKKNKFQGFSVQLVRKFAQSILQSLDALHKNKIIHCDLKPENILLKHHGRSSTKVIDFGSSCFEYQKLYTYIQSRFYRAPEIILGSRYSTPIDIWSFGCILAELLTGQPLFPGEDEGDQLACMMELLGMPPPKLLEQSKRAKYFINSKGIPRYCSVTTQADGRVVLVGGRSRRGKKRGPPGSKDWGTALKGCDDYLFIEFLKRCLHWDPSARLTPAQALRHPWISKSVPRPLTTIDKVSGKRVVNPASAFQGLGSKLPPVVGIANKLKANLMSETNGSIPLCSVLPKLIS
Chain of Mitogen-activated protein kinase 12 (P53778 whole entry): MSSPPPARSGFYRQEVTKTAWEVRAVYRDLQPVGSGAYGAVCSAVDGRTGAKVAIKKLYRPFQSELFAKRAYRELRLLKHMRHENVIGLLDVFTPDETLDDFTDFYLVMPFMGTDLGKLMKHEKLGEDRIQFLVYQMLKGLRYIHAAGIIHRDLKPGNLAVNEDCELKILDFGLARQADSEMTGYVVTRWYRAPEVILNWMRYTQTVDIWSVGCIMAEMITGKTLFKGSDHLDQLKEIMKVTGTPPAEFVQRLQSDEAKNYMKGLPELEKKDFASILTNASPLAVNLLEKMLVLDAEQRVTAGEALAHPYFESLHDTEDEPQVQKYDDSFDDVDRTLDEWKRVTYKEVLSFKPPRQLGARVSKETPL

Turning to `Cc1ccc(/C=C2/C(=O)c3ccc(C(=O)O)cc3C2=O)o1`, in assay [1], the IC50 (in general, the concentration that inhibits the measured activity by half) is 1650 nM (active).

Consider `Clc1cc(NC2CCCCC2)nc(-c2c[nH]c3ncccc23)n1`, for which the Ki – broadly, a measure of affinity in units of concentration, obtained from inhibition or displacement – was > 2000 nM (inactive) in assay [2]; 158 nM (active) in assay [3]; 501 nM (active) in [4]; > 7940 nM (inactive) at SRSF protein kinase 1; 3160 nM (active) in [5]; 2510 nM (active) in assay [6]. In addition, the Ki in assay [7] is > 5010 nM (inactive); in [8], > 1580 nM (inactive); in assay [9], 398 nM (active); in assay [10], 251 nM (active); in [11], 1260 nM (active); in assay [12] it was > 2510 nM (inactive). Further, the Ki is > 1000 nM (inactive) in assay [13]; > 3980 nM (inactive) in [14]; > 2000 nM (inactive) in assay [15]; > 3980 nM (inactive) on Activin receptor type-1; > 3980 nM (inactive) in assay [16]; 501 nM (active) in assay [17]. The Ki in assay [18] is 251 nM (active); in assay [19], 200 nM (active); in assay [20], 316 nM (active); in [21], 2510 nM (active); in assay [22], > 2000 nM (inactive); in assay [23], 3980 nM (active). Moreover, the Ki in assay [24] was 1580 nM (active); in [25], > 3160 nM (inactive); in [26], 39.8 nM (active); in assay [27], > 2510 nM (inactive); in assay [28], 79.4 nM (active); in [29] it was > 3980 nM (inactive). The Ki in assay [30] is 100 nM (active); in assay [31], 6310 nM (active); in assay [32], 3980 nM (active); in [33], > 2510 nM (inactive); in assay [34], > 3980 nM (inactive); in assay [35], 2510 nM (active). Further, the Ki in [36] is 2510 nM (active); in assay [37], 398 nM (active); in assay [38], 2000 nM (active); in assay [39], > 3160 nM (inactive); in [40], > 10000 nM (inactive); in [41], > 5010 nM (inactive). Moreover, the Ki in assay [42] was > 3160 nM (inactive); in assay [43], 1580 nM (active); in assay [44], 1000 nM (active).
